Assay results as given in patent US20240131499A1, “BIOMIMETIC CATALYSTS FOR DIVERSE INDUSTRIAL APPLICATIONS IN CHEMICAL REACTIONS” (Wisconsin Alumni Research Foundation, priority 2022, published 2024).
Values joined by “and” are separate entries in the source; they are usually repeats but may differ in a detail not shown here. Identical values can stand only once.

How the values were obtained:
[1] = Active site analysis: rate constants for the active sites in lactose hydrolysis; conditions: 100° C.; for rate constant for the active site G1H (kG1H): homogeneous catalyst
Procedure: Addition of Ca(OAc)2 for the investigation of catalytic active sites: The rate constants for H^+ and non-dissociated carboxylic acid from the acid catalysts were determined by combining results from separate reaction kinetics experiments. […] In the presence of different amounts of Ca(OAc)2, the predicted rates can be calculated by using a linear combination of the rate constants and the concentrations of corresponding active sites (equation in FIG. 1C). […] The kG1H value for each biomimetic catalyst was then used to calculate the turnover frequency (TOF=kG1H·[Lactose]0) for comparison of catalytic activities from the engineered biomimetic catalysts in FIG. 2A. […] This analysis accounts for the contributions from the catalytic activity of H^+ (pH effect) and the catalytic activity of the active site (G1H).

[2] = Reaction kinetics analysis for lactose hydrolysis; conditions: 100° C.
Procedure: The glass vial was capped to prevent the solvent from evaporation, and the hydrolysis reaction was carried out at 100° C. in an oil bath (120 and 90° C. were used to measure activation energies) with 600-800 rpm stirring. […] 0.105 g (=0.1 mL) of liquid sample solution was collected at each day (every 18-26 h) for 5 days and diluted in 0.399 g (=0.4 mL) of MQ water for the reaction kinetics analysis, and the diluted sample was filtered by syringe filter (20 μm pore) and analyzed by HPLC.
(§1) The chemical concentrations of hydrolyzed lactose solutions were quantified by high performance liquid chromatography (HPLC) analysis. The hydrolyzed solutions with immobilized catalysts were centrifuged (2500 rpm, 20 min) to separate the immobilized catalyst in the aqueous phase solution. 0.105 g (0.1 mL) of the aqueous solution was diluted in 0.399 g (0.4 mL) of Milli-Q water (5 times dilution by volume) to analyze the concentrations of lactose, glucose, galactose, and HMF as one of by-products by glucose degradation. […] The temperature of the HPLC column was maintained at 50° C., and the flow rate of the mobile phase (pH 2 water, acidified by sulfuric acid) was 0.6 mL/min.

[3] = Solubility of the organocatalyst in water; type: physicochemical; conditions: in water at 100° C.; read-out: solubility limit
From the text: Immobilization of the organocatalyst on a solid support material can prevent catalyst precipitation by distributing the organocatalyst on the surface of the support. […] Catalytic reaction over the immobilized organocatalyst is analogous to the mechanism of enzymatic reactions. For instance, an organocatalyst complex on a well-defined support with controlled surface properties can act in an analogous fashion as an active site in the channel of an enzyme. Reactants bind on the G1H sites by the interaction between surface functionality on the support and the organocatalyst. Lower loading of catalyst on a support enhances the catalytic activity (FIGS. 16A and 1D) by forming a more uniform distribution of the complex on the support.

[4] = Lactose hydrolysis in the presence of Ca(OAc)2; conditions: 100° C.
Procedure: The glass vial was capped to prevent the solvent from evaporation, and reaction was carried out at 100° C. in an oil bath with 800 rpm stirring. 0.105 g (0.1 mL) of liquid sample solution was collected each day (every 18-26 h) for 5 days and diluted in 0.399 g (0.4 mL) of MQ water for the reaction kinetics analysis. The diluted sample was analyzed by HPLC. Experimentally measured rates at different concentrations of Ca(OAc)2 were analyzed by the kinetic model (Equations 1-4).
as §1

[5] = at 100° C.; extrapolated; cited from earlier work
[6] = homogeneous (non-immobilized) catalyst, amino acids 82-84 mM, 95% confidential intervals

Compound: O=C(O)CCC(C(=O)O)N1C(=O)CCC1=O (centres unmarked) [GA-MAL-H]
- higher kG1H than kG1H for glutamic acid [1]: 31.9%
- rate constant for the active site G1H (kG1H) [1]: 0.000389 M⁻¹ s⁻¹
- suppression of kd,app/kapp compared to glutamic acid [2]: 55.2%
- kapp, apparent rate constant for lactose hydrolysis [2, 6]: 0.0077 ± 0.0002 h⁻¹
- kd,app, apparent rate constant for glucose degradation [2, 6]: 6.11e-07 ± 2.2e-07 s⁻¹

Compound: [H+] [H^+]
- rate constant for H^+ (kH+) ([1]; kapp=kH+·[H^+]): 0.0002639 M⁻¹ s⁻¹

Compound: O=C(O)CCC(C(=O)O)N1C(=O)C2C(C1=O)C1(CCC(=O)CCC34CCC(CO)(O3)C3C(=O)N(C(CCC(=O)O)C(=O)O)C(=O)C34)CCC2(CO)O1 (centres unmarked) [PHAH-GA-MAL-H]
- higher kG1H than GA-MAL-H [1]: 74.2%
- kG1H relative to glutamic acid [1]: 2.3 times
- rate constant for the active site G1H (kG1H) [1]: 0.000681 M⁻¹ s⁻¹
- solubility [3]: ~37000 µM and ~27000 µg/mL
- kapp, apparent rate constant for lactose hydrolysis ([2]; 37 mM homogeneous catalyst): 0.0117 ± 0.0004 h⁻¹
- kd,app, apparent rate constant for glucose degradation ([2]; 37 mM homogeneous catalyst): 4.44e-07 ± 1.4e-07 s⁻¹
- kapp, apparent rate constant for lactose hydrolysis ([2]; 70 mM homogeneous catalyst): 0.0103±0.0004 h^−
- kd,app, apparent rate constant for glucose degradation ([2]; 70 mM homogeneous catalyst): 2.78e-07 ± 1.7e-07 s⁻¹
- kapp, apparent rate constant for lactose hydrolysis [2, 6]: 0.0117 ± 0.0004 h⁻¹
- kd,app, apparent rate constant for glucose degradation [2, 6]: 4.44e-07 ± 1.4e-07 s⁻¹

Compound: CC(=O)O [acetic acid]
- rate constant for the non-dissociated acetic acid (kAA) ([1]; kapp=kH+·[H^+]+kAA·[AA]): 1.42e-06 M⁻¹ s⁻¹
- kapp, apparent rate constant for lactose hydrolysis [2, 6]: 0.0015 ± 0.0001 h⁻¹

Compound: N[C@@H](CCC(=O)O)C(=O)O [glutamic acid, L-glutamic acid]
- rate constant for the active site G1H (kG1H) [1]: 0.00029567 M⁻¹ s⁻¹ and 0.000294 M⁻¹ s⁻¹
- kapp, apparent rate constant for lactose hydrolysis [2, 6]: 0.0060 ± 0.0004 h⁻¹
- Rate of lactose hydrolysis ([4]; [Ca(OAc)2] 24 mM): 0.0005 M/h
- kapp, apparent rate constant for lactose hydrolysis ([4]; [Ca(OAc)2] 24 mM): 0.0011 ± 0.0001 h⁻¹
- Rate of lactose hydrolysis ([4]; [Ca(OAc)2]=0 mM): 0.0026 M/h
- kapp, apparent rate constant for lactose hydrolysis ([4]; [Ca(OAc)2]=0 mM): 0.0060 ± 0.0004 h⁻¹
- Rate of lactose hydrolysis ([4]; [Ca(OAc)2]=5 mM): 0.0016 M/h
- kapp, apparent rate constant for lactose hydrolysis ([4]; [Ca(OAc)2]=5 mM): 0.0037 ± 0.0002 h⁻¹
- Rate of lactose hydrolysis ([4]; [Ca(OAc)2]=16 mM): 0.0007 M/h
- kapp, apparent rate constant for lactose hydrolysis ([4]; [Ca(OAc)2]=16 mM): 0.0016 ± 0.0001 h⁻¹
- pKa,G1H (α-carboxylic acid) [5]: 2.24
- pKa,G2H (side-chain carboxylic acid) [5]: 4.55
- pKa,GNH (amine) [5]: 9.12

Compound: O=S(=O)(O)O [sulfuric acid]
- kapp, apparent rate constant for lactose hydrolysis [2, 6]: 0.1615 ± 0.0075 h⁻¹
- kd,app, apparent rate constant for glucose degradation [2, 6]: 1.08e-06 ± 5.42e-06 s⁻¹

Compound: N[C@@H](Cc1ccc(O)cc1)C(=O)O [tyrosine, L-tyrosine]
- kapp, apparent rate constant for lactose hydrolysis [2, 6]: 0.0004 ± 0.0001 h⁻¹
- kd,app, apparent rate constant for glucose degradation [2, 6]: 1.4e-07 ± 3.22e-06 s⁻¹
